Test results reported in patent publication US6147073A, “Substituted tetralymethylen-Oxindoles analogues as tyrosine kinase inhibitors” (Pharmacia & Upjohn S.p.A., priority 1996, dated 2000).
Structures can show the parent of a compound that is named as a salt.

How the values were obtained:
[1] = molecular target: p45 v-abl tyrosine kinase; experiment: p45 v-abl Kinase Assay ((Val^5)-angiotensin II phosphorylation); assay type: biochemical, Abelson murine leukemia virus; conditions: purified abl-kinase 40 ng; peptide 2 mM, ATP 50 μM; pH 8.0, 30° C.
Procedure: The enzyme used in our tests is the p45 v-abl tyrosine kinase which represents the catalytic domain of the Abelson tyrosine kinase (isolated from the Abelson murine leukemia virus). The p45 v-abl kinase is produced and isolated as described by Wang et al. in J.Biol.Chem. 260, 64 (1985) and by Ferguson et al. in J.Biol.Chem. 260, 3652 (1985) and in Biochem.J. 257, 321 (1989).
(Val^5)-angiotensin II phosphorylation is performed by incubation with 40 ng of purified abl-kinase and (γ-^32 P) ATP, in 50 μl of buffer containing Tris-HCl 25 mM, pH 8.0, MgCl2 10 mM and dithiothreitol 0.1 mM (kinase buffer). The reaction mixture is incubated for the indicated time at 30° C. and the reaction stopped by adding 50 μl of 5% trichloracetic acid. After a brief incubation on ice the tubes are centrifuged. The supernatants are spotted on phosphocellulase paper squares (Whatman P-81) and washed extensively in acetic acid. The radioactivity bound to dried phosphocellulose squares is measured in a liquid scintillation counter. IC50 values are calculated from triplicated determination of each experimental point. Each inhibitor is tested at concentrations ranging from […] in the presence of fixed concentrations of peptide (2 mM) and ATP (50 μM).

[2] = system: K562 cells; experiment: K562 Cell Growth Inhibition Assay; assay type: cell-based; conditions: human myelogenous leukemia cell line, cell count after 72 h vs untreated control
Procedure: K562 cells, a human myelogenous leukemia cell line, were seeded into a 24 wells tissue culture plate (Falcon 3047) (10000/well) in the presence of increasing concentrations of the compounds.
After 72 h, cells were harvested and were counted using a cell counter (Coulter Counter-ZM). The percent of inhibition was evaluated in respect to the untreated control cells.

SMILES	IC50 [1] [µM]	IC50 ([2]; K562) [µM]	IC50 [2] [µM]
CC(NC(=O)OC(C)(C)C)C(=O)Nc1ccc2c(c1)C(=Cc1cc(O)c3c(c1O)CCCC3)C(=O)N2 (centres unmarked) [5-(N-tert-butoxycarbonylalanylamino)-3-(1,4-dihydroxy-2-tetralylmethylen)-2-oxindole]	1.56	5.86	–
CC(N)C(=O)NC(C)C(=O)Nc1ccc2c(c1)C(=Cc1cc(O)c3c(c1O)CCCC3)C(=O)N2 (centres unmarked) [5-(alanylalanylamino)-3-(1,4-dihydroxy-2-tetralylmethylen)-2-oxindole trifluoroacetate]	3.12	5.3	–
CC(N)C(=O)Nc1ccc2c(c1)C(=Cc1cc(O)c3c(c1O)CCCC3)C(=O)N2 (centres unmarked) [5-(alanylamino)-3-(1,4-dihydroxy-2-tetralylmethylen)-2-oxindole]	10	8.31	–
NC(CCC(=O)O)C(=O)Nc1ccc2c(c1)C(=Cc1cc(O)c3c(c1O)CCCC3)C(=O)N2 (centres unmarked) [5-(glutamylamino)-3-(1,4-dihydroxy-2-tetralylmethylen)-2-oxindole]	10	–	5.97
